Experimental data as given in paper PMC4357015, “Structure, Function and Inhibition of the Phosphoethanolamine Methyltransferases of the Human Malaria Parasites Plasmodium vivax and Plasmodium knowlesi” (Scientific Reports, 2015).

Target: T1, PvPMT (Plasmodium vivax, UniProt A5K867)
T1 sequence (A5K867 1-264): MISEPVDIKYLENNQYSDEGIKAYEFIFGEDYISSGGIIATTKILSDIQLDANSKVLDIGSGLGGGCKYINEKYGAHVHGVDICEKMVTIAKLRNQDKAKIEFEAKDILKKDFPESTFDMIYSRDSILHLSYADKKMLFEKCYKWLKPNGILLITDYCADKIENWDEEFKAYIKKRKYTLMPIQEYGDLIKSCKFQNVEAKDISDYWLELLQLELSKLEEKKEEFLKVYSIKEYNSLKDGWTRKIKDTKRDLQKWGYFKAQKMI
Experiment: radiometric PMT transmethylation assay, inhibition of PvPMT
Type: biochemical
Settings: P-Etn 2 mM, SAM 1.5 mM; inhibitor 0, 100, 500, 1000 μM; read-out: IC50, inhibition of PvPMT activity
Method: Figure 3 Amodiaquine (AQ) and NSC158011 inhibit the activity of PvPMT and PkPMT. Enzyme inhibition assays with different concentrations of Amodiaquine (AQ), NSC158011 and Chloroquine (CQ) were carried out at constant P-Etn (2 mM) and SAM (1.5 mM) concentrations. The activity in the absence of any drug was taken as 100% and % enzyme activity was calculated in the presence of different drug concentrations (100, 500, 1000 μM). To determine the concentration that results in 50% inhibition of enzyme activity (IC50), the data were fitted to a non-linear regression analysis in the following equation Y = 100/(1 + ([X]/IC50)), where Y is % enzyme activity and X is drug concentration using Graph pad software.
For enzyme kinetics studies recombinant histidine-tagged proteins were expressed using 1 mM IPTG for 4 h, purified using Ni-affinity purification and dialyzed. As expected, purified proteins migrated in SDS-PAGE gels at approximately 31 kDa. The purified proteins were stored in HEPES-KOH buffer (pH 7.4) at 4°C and were assayed within a month of purification. During this time, the integrity of the protein was assessed by SDS-PAGE. The kinetic properties of enzymes were assessed using radiometric assay wherein incorporation of radioactive labeled methyl donor (100nCi [methyl-^14C] SAM, Perkin elmer NEC363010UC) or (200nCi [methyl-^3H] SAM, Perkin Elmer NET155H250UC) was measured. […]

CCN(CC)Cc1cc(Nc2ccnc3cc(Cl)ccc23)ccc1O [AQ, amodiaquine]
IC50: 220 µM
